Measurements published in BindingDB's records for patent US11021481 (Nimbus Saturn, 2021).
pIC50: −log10 of the molar value.

Target: Mitogen-activated protein kinase kinase kinase kinase 1 (Homo sapiens, UniProt Q92918)
Experiment: Biochemical Enzyme Assay
Experimental: HPK1 biochemical enzyme assay: HPK1 enzyme inhibition was measured using a microfluidic mobility shift assay. […] Test compounds were titrated in ten point curves (top final assay concentration 3 μM), and preincubated with enzyme/substrate mix for 30 min prior to initiation of the reaction by addition of ATP (1 mM final concentration) and substrate (1 μM final concentration; Carna Biosciences) diluted in assay buffer supplemented by MgCl2 (final assay concentration of 5 mM). Following 60 min incubation at RT, the reaction was terminated by addition of 60 µl/well termination buffer (Carna Biosciences) and signal determination using aCaliper EZ Reader (Perkin Elmer, UK).

Mitogen-activated protein kinase kinase kinase kinase 1, sequence (Q92918 whole entry): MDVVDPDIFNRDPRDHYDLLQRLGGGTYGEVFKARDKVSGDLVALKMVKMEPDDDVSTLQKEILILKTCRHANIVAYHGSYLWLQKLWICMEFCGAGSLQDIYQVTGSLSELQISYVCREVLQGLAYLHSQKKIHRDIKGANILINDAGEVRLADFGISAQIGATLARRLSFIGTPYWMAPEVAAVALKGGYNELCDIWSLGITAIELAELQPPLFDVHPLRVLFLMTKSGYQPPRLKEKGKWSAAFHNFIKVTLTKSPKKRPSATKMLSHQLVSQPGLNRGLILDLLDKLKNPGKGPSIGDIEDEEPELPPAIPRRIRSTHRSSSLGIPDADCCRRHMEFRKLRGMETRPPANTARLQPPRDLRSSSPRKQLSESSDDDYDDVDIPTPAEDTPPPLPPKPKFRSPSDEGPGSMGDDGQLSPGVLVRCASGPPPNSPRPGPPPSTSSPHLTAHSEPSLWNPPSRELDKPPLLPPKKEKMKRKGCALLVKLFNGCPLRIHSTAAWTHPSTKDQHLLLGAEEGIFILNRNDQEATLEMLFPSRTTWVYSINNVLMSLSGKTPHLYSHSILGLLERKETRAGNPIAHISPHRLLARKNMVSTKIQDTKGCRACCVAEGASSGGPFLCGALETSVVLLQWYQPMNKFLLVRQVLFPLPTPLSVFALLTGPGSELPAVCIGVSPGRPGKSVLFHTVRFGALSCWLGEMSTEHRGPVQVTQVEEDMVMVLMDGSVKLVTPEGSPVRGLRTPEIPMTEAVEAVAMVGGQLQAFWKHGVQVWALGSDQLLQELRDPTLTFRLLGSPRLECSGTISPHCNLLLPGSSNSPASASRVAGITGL

pIC50 | IC50 | SMILES
> 7.00 | – | Cn1ccc2c1N=CNC2c1ccc(Nc2ccc(N3CCC(O)CC3)cn2)c2c1CNC2=O (stereo not given) [US11021481, Compound I-144]
< 6.00 | – | O=C1NCc2c(-c3cnc4ccccn34)ccc(Cc3ccn(C4CCOCC4)n3)c21 [US11021481, Compound I-382]
> 7.00 | – | CNC1CN(c2cccc(Nc3cnc(-c4ccnc5c4ccn5C)c4c3C(=O)NC4)c2)C1 [US11021481, Compound I-449]
> 7.00 | – | CC(C)(O)[C@@H]1CN(c2ccc(Nc3ccc(-c4cnc5c(C(F)F)cccn45)c4c3C(=O)NC4)nc2)CCO1 [US11021481, Compound I-475]
– | in the range around 550 nM | Cc1ccn2c(-c3ncc(Nc4cccc(C5CC[C@@H]6CNC[C@H]56)n4)c4c3CNC4=O)cnc2c1F (stereo not given in full) [US11021481, Compound I-480]
> 7.00 | – | Cc1ccn2c(-c3ncc(Nc4cccc(C5CCC6CNCC65)n4)c4c3CNC4=O)cnc2c1F (stereo not given) [US11021481, Compound I-481]
> 7.00 | – | Cc1ccnn2c(-c3ncc(Nc4ccc(C5CCOC5)c(CN(C)C)n4)c4c3CNC4=O)cnc12 (stereo not given) [US11021481, Compound I-539]
> 7.00 | – | C[C@@H]1CN(c2c(CN(C)C)cc(Nc3ccc(-c4cnc5cc(F)ccn45)c4c3C(=O)NC4)nc2CN(C)C)CCO1 [US11021481, Compound I-541]
> 7.00 | – | Cn1ccc2c(-c3ncc(Nc4ccc(C5CCOC5)c(CN5CCCC5)n4)c4c3CNC4=O)cccc21 (stereo not given) [US11021481, Compound I-552]
> 7.00 | – | Cc1ccn2c(-c3ccc(Nc4ccc(C5CCOC5)c(CN(C)C)n4)c4c3CNC4=O)cnc2c1 (stereo not given) [US11021481, Compound I-561]
> 7.00 | – | CN1CC(O)(C2CCCN(c3ccc(Nc4ccc(C5=CNC6C=C(F)C=CN56)c5c4C(=O)NC5)nc3)C2)C1 (stereo not given) [US11021481, Compound I-599]
> 7.00 | – | CN1CCN(c2nc(Nc3ccc(-c4cnc5cc(F)ccn45)c4c3C(=O)NC4)cnc2[C@H]2CCOC2)CC1 [US11021481, Compound I-801]
> 7.00 | – | CN1CCN(c2nc(Nc3ccc(-c4cnc5cc(F)ccn45)c4c3C(=O)NC4)cnc2[C@@H]2CCOC2)CC1 [US11021481, Compound I-802]
> 7.00 | – | CN(C)Cc1nc(Nc2cnc(-c3cccc4c3ccn4C)c3c2C(=O)NC3)ccc1O[C@@H]1CCOC1 [US11021481, Compound I-805]
> 7.00 | – | COCC1(O)CCN(c2ccc(Nc3ccc(-c4ccnc5c4ccn5C)c4c3C(=O)NC4)nc2CN(C)C)CC1 [US11021481, Compound I-851]
